Results published in article PMC2361662 (British Journal of Cancer, 2005).

What was measured:
[1] = tested on: EGFRvIII-expressing cells; set-up: method as in Montgomery, 2002; conditions: ref Montgomery, 2002; cited from earlier work
LN229/EGFR cells = tested on: LN229/EGFR cells; set-up: method as in Li et al (2003); conditions: ref Li et al (2003); cited from earlier work
ERK = ERK phosphorylation, immunoblot; type: cell-based
Experimental: (§1) For determination of phosphorylated proteins, 5 μg whole cell lysate from serum-starved cells was resolved by SDS–PAGE and electroblotted onto nitrocellulose membranes. After transfer and blocking in 5% nonfat milk, primary antibody staining was carried out by incubation overnight at 4°C, and secondary antibody staining was for 1 h at room temperature. The chemiluminescence detection method (ECL) was used for all Western blot experiments.
(§2) Extracellular regulated kinase-1 and -2 (ERK-2), phospholipase C γ (PLC-γ), protein kinase B (AKT) and the signal transducer and activator of transcription 3 (STAT3) are all essential downstream targets of EGFR and mediate many of its oncogenic effects.
(§3) Figure 3 (A) Phosphorylation of key signalling molecules upon EGF (10 nM for 10 min) stimulation in the four cell lines.

STAT3 = STAT3 phosphorylation, immunoblot; type: cell-based; conditions: NR6M cells (EGFRvIII-expressing)
Experimental: as §1, §2, §3

COc1cc2ncnc(Nc3cccc(Cl)c3)c2cc1OC [AG1478]
Concentration that stimulated colony formation [1]: 0.1 µM

COc1cc2ncnc(Nc3cccc(Br)c3)c2cc1OC [PD153035]
Concentration that stimulated proliferation (LN229/EGFR cells): 0.05 µM

COc1cc2ncnc(Nc3ccc(F)c(Cl)c3)c2cc1OCCCN1CCOCC1 [gefitinib]
Effect on ERK phosphorylation (ERK; NR6M cells, 0.1 μM gefitinib, after 48 and 72 h): increased | Response of ERK phosphorylations to gefitinib (ERK; NR6W cells, up to the highest concentrations (2 μM)): unresponsive | Effect on background level of STAT3 phosphorylation (STAT3): no effect
